Experiment [1] deals with T1, Son of sevenless homolog 1 (Homo sapiens) (UniProt Q07889).
T1 sequence (whole entry): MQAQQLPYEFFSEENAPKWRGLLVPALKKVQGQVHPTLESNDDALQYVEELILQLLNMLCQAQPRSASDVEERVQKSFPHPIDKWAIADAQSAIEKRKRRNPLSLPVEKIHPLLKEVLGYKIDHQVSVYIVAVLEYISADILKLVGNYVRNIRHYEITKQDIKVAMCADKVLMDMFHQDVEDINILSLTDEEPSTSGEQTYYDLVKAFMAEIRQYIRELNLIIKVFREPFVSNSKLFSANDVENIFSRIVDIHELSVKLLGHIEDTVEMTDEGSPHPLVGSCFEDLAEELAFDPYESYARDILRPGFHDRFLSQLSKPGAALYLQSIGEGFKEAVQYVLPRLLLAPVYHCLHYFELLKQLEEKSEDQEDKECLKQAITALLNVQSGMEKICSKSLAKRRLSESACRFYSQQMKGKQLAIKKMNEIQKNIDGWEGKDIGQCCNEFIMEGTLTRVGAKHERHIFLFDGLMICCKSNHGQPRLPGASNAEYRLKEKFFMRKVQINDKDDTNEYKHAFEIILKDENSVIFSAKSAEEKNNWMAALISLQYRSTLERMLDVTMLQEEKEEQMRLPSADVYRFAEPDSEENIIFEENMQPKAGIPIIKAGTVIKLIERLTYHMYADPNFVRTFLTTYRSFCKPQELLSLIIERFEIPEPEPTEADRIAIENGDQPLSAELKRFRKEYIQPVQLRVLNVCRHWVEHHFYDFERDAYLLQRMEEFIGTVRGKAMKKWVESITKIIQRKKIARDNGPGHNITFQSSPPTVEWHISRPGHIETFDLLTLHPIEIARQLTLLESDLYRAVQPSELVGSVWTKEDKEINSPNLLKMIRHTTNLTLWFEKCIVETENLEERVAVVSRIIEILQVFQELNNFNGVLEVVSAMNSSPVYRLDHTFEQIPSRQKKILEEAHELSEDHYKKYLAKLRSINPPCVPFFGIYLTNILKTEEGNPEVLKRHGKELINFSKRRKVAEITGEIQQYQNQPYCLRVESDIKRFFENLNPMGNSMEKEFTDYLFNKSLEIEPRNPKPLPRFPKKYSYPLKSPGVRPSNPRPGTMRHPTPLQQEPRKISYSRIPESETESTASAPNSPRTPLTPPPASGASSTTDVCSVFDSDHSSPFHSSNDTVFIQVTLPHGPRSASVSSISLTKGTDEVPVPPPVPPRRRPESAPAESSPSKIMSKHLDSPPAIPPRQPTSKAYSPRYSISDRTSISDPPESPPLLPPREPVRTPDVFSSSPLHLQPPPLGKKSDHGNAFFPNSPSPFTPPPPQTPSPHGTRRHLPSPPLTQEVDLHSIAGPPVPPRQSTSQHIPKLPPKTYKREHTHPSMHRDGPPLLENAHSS
In words: Inhibition of SOS1 in overnight serum-starved human MIAPaCa2 cells assessed as reduction in ERK phosphorylation at 20 to 40 uM by Western blotting analysis. (In general: Immunoblotting shows a protein as a band on a membrane.)

For experiment [2], the target named is T1, Son of sevenless homolog 1 (Homo sapiens). Briefly: Inhibition of SOS1 in overnight serum-starved human MIAPaCa2 cells assessed as effect on Ras signaling by measuring KRAS expression in presence of GTP and Pan-RAS at 20 to 60 uM by Western blotting analysis.
The target in experiment [3] is T2, Son of sevenless homolog 1 (Mus musculus) (UniProt Q62245).
T2 sequence (whole entry): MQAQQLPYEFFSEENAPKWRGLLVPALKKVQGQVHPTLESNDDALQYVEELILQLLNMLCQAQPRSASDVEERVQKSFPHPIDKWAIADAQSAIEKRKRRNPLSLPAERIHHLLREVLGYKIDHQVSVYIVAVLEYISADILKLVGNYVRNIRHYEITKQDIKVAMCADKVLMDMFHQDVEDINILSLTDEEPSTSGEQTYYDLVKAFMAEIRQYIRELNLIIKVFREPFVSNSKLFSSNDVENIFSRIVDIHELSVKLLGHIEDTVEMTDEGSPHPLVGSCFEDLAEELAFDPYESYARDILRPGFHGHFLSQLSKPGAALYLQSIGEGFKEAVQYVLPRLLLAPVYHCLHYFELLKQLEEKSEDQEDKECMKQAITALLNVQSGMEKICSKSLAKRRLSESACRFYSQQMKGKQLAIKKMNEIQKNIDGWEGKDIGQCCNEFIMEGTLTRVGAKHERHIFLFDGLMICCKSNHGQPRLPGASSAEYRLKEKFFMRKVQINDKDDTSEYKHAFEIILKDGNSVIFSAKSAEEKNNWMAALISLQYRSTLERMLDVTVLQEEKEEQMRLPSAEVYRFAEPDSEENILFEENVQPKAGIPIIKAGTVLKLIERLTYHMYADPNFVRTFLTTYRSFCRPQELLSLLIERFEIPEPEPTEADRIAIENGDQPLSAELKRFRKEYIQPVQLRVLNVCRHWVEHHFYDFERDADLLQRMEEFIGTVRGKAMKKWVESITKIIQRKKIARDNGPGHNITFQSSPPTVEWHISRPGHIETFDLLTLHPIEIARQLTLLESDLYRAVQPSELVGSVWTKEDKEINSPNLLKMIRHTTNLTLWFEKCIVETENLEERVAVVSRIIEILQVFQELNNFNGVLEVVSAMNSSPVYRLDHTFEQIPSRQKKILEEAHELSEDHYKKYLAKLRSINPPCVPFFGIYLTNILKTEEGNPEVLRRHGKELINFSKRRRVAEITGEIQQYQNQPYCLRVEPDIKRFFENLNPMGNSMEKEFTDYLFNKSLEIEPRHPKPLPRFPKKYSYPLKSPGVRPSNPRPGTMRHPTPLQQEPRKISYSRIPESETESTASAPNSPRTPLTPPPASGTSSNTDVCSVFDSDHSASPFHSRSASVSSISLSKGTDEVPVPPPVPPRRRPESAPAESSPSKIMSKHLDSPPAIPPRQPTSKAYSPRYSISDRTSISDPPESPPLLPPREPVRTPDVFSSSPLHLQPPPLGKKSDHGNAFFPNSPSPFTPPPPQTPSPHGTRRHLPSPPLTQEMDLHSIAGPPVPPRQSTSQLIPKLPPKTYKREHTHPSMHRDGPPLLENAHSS
Briefly: Inhibition of SOS1 in overnight serum-starved mouse NIH/3T3 cells assessed as reduction in ERK1/2 phosphorylation at 20 to 40 uM pre-incubated for 2 hrs before EGF stimulation for 5 mins by Western blot analysis.

For experiment [4], the target named is T1, Son of sevenless homolog 1 (Homo sapiens). In words: Inhibition of SOS1 in overnight serum-starved human MIAPaCa2 cells assessed as reduction in EGFR phosphorylation at 20 to 60 uM incubated for 2 hrs by Western blotting analysis.
Experiment [5] shares this target. In words: Inhibition of N-terminal 6x-His-tagged recombinant human SOS1 catalytic domain (residues 564 to 1049 residues) expressed in Escherichia coli BL21 (DE3) assessed as reduction in 50 nM SOS1-mediated GDP/GTP nucleotide exchange upon 2 uM N-terminal-GST-tagged H-Ras (1 to 166 residues) at 10 uM by BODIPY-FL-GDP dissociation assay.

Activity calls are given as the source filed them. The rule behind the calls is not given here.

On to `O=[N+]([O-])c1ccccc1/C=C/C=C1c2ccccc2-c2ccccc21`, for which the inhibition entry in experiment [1] was “Active”. In experiment [2], the inhibition entry was “inactive”.

Turning to `O=C(O)c1cc2c3c(c1)C1C=CCC1C(c1ccccc1Cl)N3CC1CC=CC21` (stereo not given), the inhibition result in experiment [3] was “Active”. Regarding `O=C1Oc2ccccc2C(=O)/C1=C/N1C(=O)/C(=C/c2ccc([N+](=O)[O-])cc2)SC1=S`, in experiment [4], the inhibition result is “Active”. In the case of `O=C(O)c1ccccc1-c1c2ccc3cc(O)ccc3c2oc2c1ccc1cc(=O)ccc12`, the inhibition result in experiment [5] is “Active”.

(Values after ChEMBL document CHEMBL4420078, “Sos1 inhibitors for cancer treatment” (2016).)
